Experimental data: the kinase profiling compilation of Christmann-Franck et al. (2016)

What was measured:
Test in all cases: KINOMEscan competition binding
Details in all cases: compound 10.0 µM
ACVR1B (human) = ACVR1B (human) (UniProt P36896)
MYLK2 (human) = MYLK2 (human) (UniProt Q9H1R3)
FGR (human) = FGR (human) (UniProt P09769)
NTRK3 (human) = NTRK3 (human) (UniProt Q16288)
NUAK1 (human) = NUAK1 (human) (UniProt O60285)
CDC42BPA (human) = CDC42BPA (human) (UniProt Q5VT25)
NEK7 (human) = NEK7 (human) (UniProt Q8TDX7)
TBK1 (human) = TBK1 (human) (UniProt Q9UHD2)
PAK1 (human) = PAK1 (human) (UniProt Q13153)
MAP3K9 (human) = MAP3K9 (human) (UniProt P80192)
CDK16 (human) = CDK16 (human) (UniProt Q00536)
ADCK4 (human) = ADCK4 (human) (UniProt Q96D53)
MAP2K1 (human) = MAP2K1 (human) (UniProt Q02750)
TSSK1B (human) = TSSK1B (human) (UniProt Q9BXA7)
CAMK1G (human) = CAMK1G (human) (UniProt Q96NX5)
ICK (human) = ICK (human) (UniProt Q9UPZ9)
CDK8 (human) = CDK8 (human) (UniProt P49336)
FRK (human) = FRK (human) (UniProt P42685)
RPS6KA2 KD2 (human) = RPS6KA2 KD2 (human) (UniProt Q15349)
PIK3CA (human) = PIK3CA (human) (UniProt P42336)
CIT (human) = CIT (human) (UniProt O14578)
PLK1 (human) = PLK1 (human) (UniProt P53350)
STK32B (human) = STK32B (human) (UniProt Q9NY57)
STK25 (human) = STK25 (human) (UniProt O00506)
FER (human) = FER (human) (UniProt P16591)
ROCK2 (human) = ROCK2 (human) (UniProt O75116)
CSNK2A1 (human) = CSNK2A1 (human) (UniProt P68400)
STK4 (human) = STK4 (human) (UniProt Q13043)
CHUK (human) = CHUK (human) (UniProt O15111)
EPHB2 (human) = EPHB2 (human) (UniProt P29323)
CSNK1A1L (human) = CSNK1A1L (human) (UniProt Q8N752)
[1] = biological target: TYK2 JH2 pseudokinase (human) (UniProt P29597)
[2] = tested on: KIT (human), P10721 [D816H]
PLK3 (human) = PLK3 (human) (UniProt Q9H4B4)
GSK3B (human) = GSK3B (human) (UniProt P49841)
PHKG1 (human) = PHKG1 (human) (UniProt Q16816)
MUSK (human) = MUSK (human) (UniProt O15146)
NTRK1 (human) = NTRK1 (human) (UniProt P04629)
ROS1 (human) = ROS1 (human) (UniProt P08922)
STK33 (human) = STK33 (human) (UniProt Q9BYT3)

Sequence of FGR (human) (P09769 whole entry, looked up): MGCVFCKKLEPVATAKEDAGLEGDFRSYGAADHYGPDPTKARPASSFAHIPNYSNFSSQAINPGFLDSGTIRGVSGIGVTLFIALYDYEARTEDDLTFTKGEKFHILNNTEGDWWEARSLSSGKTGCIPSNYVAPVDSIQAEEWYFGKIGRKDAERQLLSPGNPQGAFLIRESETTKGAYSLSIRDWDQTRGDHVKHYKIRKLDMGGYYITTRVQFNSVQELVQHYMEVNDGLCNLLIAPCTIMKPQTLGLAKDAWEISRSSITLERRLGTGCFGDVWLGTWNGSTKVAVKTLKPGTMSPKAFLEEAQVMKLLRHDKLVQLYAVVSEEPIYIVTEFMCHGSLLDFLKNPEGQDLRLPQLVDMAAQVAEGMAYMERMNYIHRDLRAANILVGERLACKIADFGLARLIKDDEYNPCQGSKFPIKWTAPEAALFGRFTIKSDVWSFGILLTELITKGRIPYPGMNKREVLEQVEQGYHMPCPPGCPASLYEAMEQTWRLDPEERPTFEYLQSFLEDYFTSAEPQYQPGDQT
Sequence of NEK7 (human) (Q8TDX7 whole entry, looked up): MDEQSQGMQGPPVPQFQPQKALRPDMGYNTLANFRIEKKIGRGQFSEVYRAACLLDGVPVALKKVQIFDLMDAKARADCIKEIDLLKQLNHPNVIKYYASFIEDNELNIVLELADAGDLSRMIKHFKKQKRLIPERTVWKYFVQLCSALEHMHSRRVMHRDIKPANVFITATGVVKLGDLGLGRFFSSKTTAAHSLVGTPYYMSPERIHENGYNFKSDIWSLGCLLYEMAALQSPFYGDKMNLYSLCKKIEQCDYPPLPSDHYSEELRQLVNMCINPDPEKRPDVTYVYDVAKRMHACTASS
Sequence of ACVR1B (human) (P36896 whole entry, looked up): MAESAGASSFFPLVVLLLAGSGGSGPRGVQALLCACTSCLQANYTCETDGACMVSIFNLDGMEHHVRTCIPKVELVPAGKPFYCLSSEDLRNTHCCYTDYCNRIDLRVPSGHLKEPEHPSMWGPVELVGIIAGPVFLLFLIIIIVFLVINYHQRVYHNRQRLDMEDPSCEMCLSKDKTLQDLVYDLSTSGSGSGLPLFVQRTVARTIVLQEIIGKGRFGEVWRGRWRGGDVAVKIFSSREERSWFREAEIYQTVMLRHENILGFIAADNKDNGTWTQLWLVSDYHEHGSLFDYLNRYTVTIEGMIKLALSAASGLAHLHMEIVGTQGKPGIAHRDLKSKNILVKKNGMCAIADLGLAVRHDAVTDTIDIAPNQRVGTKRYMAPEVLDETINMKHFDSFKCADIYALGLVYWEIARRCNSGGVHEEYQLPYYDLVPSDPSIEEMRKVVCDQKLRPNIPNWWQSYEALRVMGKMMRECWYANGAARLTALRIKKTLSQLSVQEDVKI
Sequence of EPHB2 (human) (P29323 whole entry, looked up): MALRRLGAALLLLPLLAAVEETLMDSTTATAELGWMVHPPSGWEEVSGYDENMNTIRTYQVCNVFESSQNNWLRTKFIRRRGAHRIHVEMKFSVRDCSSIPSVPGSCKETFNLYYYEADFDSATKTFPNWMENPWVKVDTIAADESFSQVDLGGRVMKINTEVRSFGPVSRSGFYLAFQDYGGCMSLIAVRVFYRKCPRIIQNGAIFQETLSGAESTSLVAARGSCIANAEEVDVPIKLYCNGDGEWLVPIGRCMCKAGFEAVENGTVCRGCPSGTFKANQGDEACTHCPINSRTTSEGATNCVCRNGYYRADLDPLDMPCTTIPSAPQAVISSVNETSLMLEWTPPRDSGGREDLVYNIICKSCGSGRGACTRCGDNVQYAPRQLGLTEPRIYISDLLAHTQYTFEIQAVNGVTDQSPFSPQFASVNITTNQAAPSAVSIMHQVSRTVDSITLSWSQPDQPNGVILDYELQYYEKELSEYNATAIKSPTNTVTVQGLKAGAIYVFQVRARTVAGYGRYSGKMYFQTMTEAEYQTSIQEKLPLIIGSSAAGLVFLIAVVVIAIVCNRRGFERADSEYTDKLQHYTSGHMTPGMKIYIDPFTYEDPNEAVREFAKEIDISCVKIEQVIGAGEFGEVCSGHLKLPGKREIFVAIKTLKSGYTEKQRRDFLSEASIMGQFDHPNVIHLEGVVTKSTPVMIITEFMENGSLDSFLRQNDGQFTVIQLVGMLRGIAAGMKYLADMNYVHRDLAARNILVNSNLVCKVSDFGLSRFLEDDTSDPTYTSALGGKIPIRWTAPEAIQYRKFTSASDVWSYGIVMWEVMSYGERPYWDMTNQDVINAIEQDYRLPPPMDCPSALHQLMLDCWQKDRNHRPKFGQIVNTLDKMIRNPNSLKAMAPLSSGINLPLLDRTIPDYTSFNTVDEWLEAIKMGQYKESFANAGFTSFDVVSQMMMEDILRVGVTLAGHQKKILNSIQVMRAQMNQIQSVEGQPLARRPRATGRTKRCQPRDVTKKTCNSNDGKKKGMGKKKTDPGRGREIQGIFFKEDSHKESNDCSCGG
Sequence of ICK (human) (Q9UPZ9 whole entry, looked up): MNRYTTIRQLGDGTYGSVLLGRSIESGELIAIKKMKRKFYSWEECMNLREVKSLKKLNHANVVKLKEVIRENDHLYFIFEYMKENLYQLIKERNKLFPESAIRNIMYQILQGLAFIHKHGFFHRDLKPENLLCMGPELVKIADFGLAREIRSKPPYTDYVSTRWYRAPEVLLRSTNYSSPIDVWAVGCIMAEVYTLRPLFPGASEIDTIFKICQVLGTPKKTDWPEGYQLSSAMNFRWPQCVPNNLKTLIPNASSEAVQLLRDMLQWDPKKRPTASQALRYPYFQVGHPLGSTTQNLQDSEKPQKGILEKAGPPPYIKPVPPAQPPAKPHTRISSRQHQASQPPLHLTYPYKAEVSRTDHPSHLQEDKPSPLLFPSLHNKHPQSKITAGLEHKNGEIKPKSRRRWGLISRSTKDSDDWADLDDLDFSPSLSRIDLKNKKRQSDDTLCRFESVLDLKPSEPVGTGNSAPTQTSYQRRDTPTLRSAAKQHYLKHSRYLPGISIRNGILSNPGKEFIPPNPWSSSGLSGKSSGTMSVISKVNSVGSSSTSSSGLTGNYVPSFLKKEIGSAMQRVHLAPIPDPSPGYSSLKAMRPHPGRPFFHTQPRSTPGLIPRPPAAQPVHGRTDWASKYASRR
Sequence of GSK3B (human) (P49841 whole entry, looked up): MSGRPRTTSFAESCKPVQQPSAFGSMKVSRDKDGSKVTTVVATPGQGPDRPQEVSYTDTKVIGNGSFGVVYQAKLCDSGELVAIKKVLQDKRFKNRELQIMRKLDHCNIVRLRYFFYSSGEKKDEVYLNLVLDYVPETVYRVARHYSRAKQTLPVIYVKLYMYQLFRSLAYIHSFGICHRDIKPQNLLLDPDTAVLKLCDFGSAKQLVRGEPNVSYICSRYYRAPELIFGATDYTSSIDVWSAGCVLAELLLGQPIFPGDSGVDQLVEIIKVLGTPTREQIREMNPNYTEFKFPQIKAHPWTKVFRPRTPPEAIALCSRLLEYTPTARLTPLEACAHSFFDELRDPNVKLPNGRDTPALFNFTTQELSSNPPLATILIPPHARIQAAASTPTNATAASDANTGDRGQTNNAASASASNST
Sequence of MYLK2 (human) (Q9H1R3 whole entry, looked up): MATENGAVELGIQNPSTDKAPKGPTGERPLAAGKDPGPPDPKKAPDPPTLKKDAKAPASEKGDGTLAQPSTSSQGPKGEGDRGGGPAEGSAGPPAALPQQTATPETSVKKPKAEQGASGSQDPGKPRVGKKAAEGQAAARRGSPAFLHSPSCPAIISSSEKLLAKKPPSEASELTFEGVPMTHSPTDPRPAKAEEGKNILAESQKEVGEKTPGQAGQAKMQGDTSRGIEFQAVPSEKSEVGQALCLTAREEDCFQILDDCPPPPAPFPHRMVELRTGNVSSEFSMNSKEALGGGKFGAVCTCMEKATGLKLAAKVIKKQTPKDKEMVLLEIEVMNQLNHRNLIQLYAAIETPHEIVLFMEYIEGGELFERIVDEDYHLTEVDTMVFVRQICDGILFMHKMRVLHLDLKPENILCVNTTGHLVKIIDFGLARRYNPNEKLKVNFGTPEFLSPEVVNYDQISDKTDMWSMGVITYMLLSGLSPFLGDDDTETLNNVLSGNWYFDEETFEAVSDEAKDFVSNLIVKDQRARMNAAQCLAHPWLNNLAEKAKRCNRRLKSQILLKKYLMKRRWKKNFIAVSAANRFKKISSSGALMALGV
Sequence of FER (human) (P16591 whole entry, looked up): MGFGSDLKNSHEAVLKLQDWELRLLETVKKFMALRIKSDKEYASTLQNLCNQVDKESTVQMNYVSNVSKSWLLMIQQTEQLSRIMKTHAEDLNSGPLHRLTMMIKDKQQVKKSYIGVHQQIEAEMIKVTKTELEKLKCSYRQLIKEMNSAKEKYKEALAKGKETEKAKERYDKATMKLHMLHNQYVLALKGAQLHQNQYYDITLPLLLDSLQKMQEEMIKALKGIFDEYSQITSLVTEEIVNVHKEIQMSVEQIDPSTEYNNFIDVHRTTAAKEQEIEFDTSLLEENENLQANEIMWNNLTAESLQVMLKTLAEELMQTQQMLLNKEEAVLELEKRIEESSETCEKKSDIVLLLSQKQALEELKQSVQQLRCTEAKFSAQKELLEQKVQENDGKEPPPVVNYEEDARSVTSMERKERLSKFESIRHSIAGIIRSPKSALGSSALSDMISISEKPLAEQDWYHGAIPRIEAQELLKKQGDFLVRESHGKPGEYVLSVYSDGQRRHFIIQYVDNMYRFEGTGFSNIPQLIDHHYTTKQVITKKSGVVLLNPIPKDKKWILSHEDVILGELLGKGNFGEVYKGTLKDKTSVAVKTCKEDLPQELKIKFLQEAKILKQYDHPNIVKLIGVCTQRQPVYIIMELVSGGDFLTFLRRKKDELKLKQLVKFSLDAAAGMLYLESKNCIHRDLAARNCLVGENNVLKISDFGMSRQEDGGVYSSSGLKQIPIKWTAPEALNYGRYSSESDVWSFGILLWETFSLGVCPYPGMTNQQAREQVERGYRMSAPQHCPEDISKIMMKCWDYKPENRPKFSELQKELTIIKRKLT

SMILES | kinase still bound, per cent of control (ACVR1B (human)) | kinase still bound, per cent of control (MYLK2 (human)) | kinase still bound, per cent of control (FGR (human)) | kinase still bound, per cent of control (NTRK3 (human)) | kinase still bound, per cent of control (NUAK1 (human)) | kinase still bound, per cent of control (CDC42BPA (human)) | kinase still bound, per cent of control (NEK7 (human)) | kinase still bound, per cent of control (TBK1 (human)) | kinase still bound, per cent of control (PAK1 (human)) | kinase still bound, per cent of control (MAP3K9 (human)) | kinase still bound, per cent of control (CDK16 (human)) | kinase still bound, per cent of control (ADCK4 (human)) | kinase still bound, per cent of control (MAP2K1 (human)) | kinase still bound, per cent of control (TSSK1B (human)) | kinase still bound, per cent of control (CAMK1G (human)) | kinase still bound, per cent of control (ICK (human)) | kinase still bound, per cent of control (CDK8 (human)) | kinase still bound, per cent of control (FRK (human)) | kinase still bound, per cent of control (RPS6KA2 KD2 (human)) | kinase still bound, per cent of control (PIK3CA (human)) | also measured
CCCS(=O)(=O)Nc1ccc(F)c(C(=O)c2c[nH]c3ncc(Cl)cc23)c1F | 98% | 64% | 8.4% | 77% | 100% | 96% | 59% | 100% | 11% | 94% | 68% | 100% | 0.8% | 83% | 76% | 63% | 2.2% | 19% | 94% | 82% | kinase still bound, per cent of control (CIT (human)): 66%; kinase still bound, per cent of control (PLK1 (human)): 100%; kinase still bound, per cent of control (STK32B (human)): 100%; kinase still bound, per cent of control (STK25 (human)): 53%; kinase still bound, per cent of control (FER (human)): 58%; kinase still bound, per cent of control (ROCK2 (human)): 81%; kinase still bound, per cent of control (CSNK2A1 (human)): 18%; kinase still bound, per cent of control (STK4 (human)): 38%; kinase still bound, per cent of control (CHUK (human)): 89%; kinase still bound, per cent of control (EPHB2 (human)): 100%; kinase still bound, per cent of control (CSNK1A1L (human)): 100%; kinase still bound, per cent of control [1]: 100%; kinase still bound, per cent of control [2]: 93%; kinase still bound, per cent of control (PLK3 (human)): 96%; kinase still bound, per cent of control (GSK3B (human)): 100%; kinase still bound, per cent of control (PHKG1 (human)): 100%; kinase still bound, per cent of control (MUSK (human)): 71%; kinase still bound, per cent of control (NTRK1 (human)): 100%; kinase still bound, per cent of control (ROS1 (human)): 34%; kinase still bound, per cent of control (STK33 (human)): 85%
CCc1nc(-c2cccc(C)c2)c(-c2ccnc(NC(=O)c3ccccc3)c2)s1 | 4.6% | 96% | 52% | 96% | 100% | 82% | 100% | 100% | 76% | 94% | 100% | 2.2% | 86% | 87% | 97% | 100% | 88% | 36% | 86% | 100% | kinase still bound, per cent of control (CIT (human)): 0.45%; kinase still bound, per cent of control (PLK1 (human)): 100%; kinase still bound, per cent of control (STK32B (human)): 7%; kinase still bound, per cent of control (STK25 (human)): 84%; kinase still bound, per cent of control (FER (human)): 60%; kinase still bound, per cent of control (ROCK2 (human)): 100%; kinase still bound, per cent of control (CSNK2A1 (human)): 100%; kinase still bound, per cent of control (STK4 (human)): 74%; kinase still bound, per cent of control (CHUK (human)): 100%; kinase still bound, per cent of control (EPHB2 (human)): 80%; kinase still bound, per cent of control (CSNK1A1L (human)): 1.3%; kinase still bound, per cent of control [1]: 57%; kinase still bound, per cent of control [2]: 57%; kinase still bound, per cent of control (PLK3 (human)): 98%; kinase still bound, per cent of control (GSK3B (human)): 60%; kinase still bound, per cent of control (PHKG1 (human)): 100%; kinase still bound, per cent of control (MUSK (human)): 100%; kinase still bound, per cent of control (NTRK1 (human)): 100%; kinase still bound, per cent of control (ROS1 (human)): 69%; kinase still bound, per cent of control (STK33 (human)): 97%
